The results in this text go back to patent US5235045A, “Non-azo naphthalimide dyes” (priority 1992, dated 1993).

One assay concerns H9 cells. As to the kind of experiment: Effects on H9 cells of Ed6Br with prior activation by 420 nm light (Trypan Blue). Format: cell-based. To be noted: Homo sapiens, H9, 24 h, read-out: % Viable Cells. As for the experimental part: H9 cells were cultivated in RPMI-1640 medium containing an additional 10% fetal calf serum at 37.5° C. in air having added 5% CO2. A 5.46 ml aliquot of cell suspension containing 9.16×10^5 H9 cells per ml was harvested, the cells sedimented at 450 x g for 10 minutes and resuspended in fresh growth medium. Two hundred microliter aliquots of the suspension were centrifuged as above and the resulting cell pellet served for resuspension in dye plus medium suspension for this study.
Six milliliters of suspension of Cremophor EL micelles containing Ed6Br in RPMI-1640 containing 10% additional fetal calf serum was made by diluting a 2.5 millimeter solution of the dye in Cremophor EL to give an average Ed6Br concentration of […], and the resulting suspension divided into 2 three milliliter aliquots. One aliquot was irradiated with 420 #5 nm light filtered from a xenon arc lamp at an irradiance of 20 mW/cm^2 to a total fluence of 200 J/cm^2. The companion aliquot was wrapped in aluminum foil and handled in identical fashion to the irradiated sample. These two aliquots served as stocks for deforming effects of both previously irradiated and un-irradiated Ed6Br at different concentrations from 0 up to 100 mM on H9 cells kept in the dark. Dulutions of the stock dye suspension into additional fresh growth medium were made within 1 hour of light irradiation to give dye-medium suspensions with average Ed6Br concentrations of […] for both previously irradiated and dark dye samples. The H9 cell pellets were resuspended in these dye-Cremophor EL suspensions and held at 37.5° C. in an air atmosphere containing an additional 5% CO2. After 24 hrs. culture of the number of total and viable […] was determined by Trypan Blue exclusion using a hemocytometer and microscope for cell counting.

A further assay concerns BHV-1 antigen. As to the kind of experiment: Surface antigen assays of BHV-1 on FBL cells. Format: cell-based, Bovine Herpes Virus Type I (BHV-1). As for the experimental part:
Surface Antigen Assays The BHV-1 virus prepared as above (20480 TCID50) was (i) held as control; (ii) treated with dye (concentrations from 7.5 to 250 ng/ml) in cell culture medium; or (iii) treated with Compound VII and light-treated in cell culture medium. All virus was plated in 96-well flat bottom plates for 24 hours in 5x replicates on FBL cells. At that time the wells were examined for CPE, scored, and 2x wells were fixed in acetone and paraformaldehyde for examination of intracellular and surface BHV-1 antigen, respectively. The cells were treated with 50 μl of an anti-BHV-1 monoclonal antibody (gift of Dr. J. Collins, Diagnostic Laboratory, Colorado State University, School of Veterinary Medicine) used as a common diagnostic reagent, for 30 minutes at room temperature. The cells were further stained with either FITC-labeled anti-mouse or biotinylated anti-mouse and avidin rPE. The samples were placed on slides and read by fluorescent microscopy using a 495 nm excitor filter and 525 long pass emission filter on a Leitz epifluorescent microscope.

A further assay has as its system DAUDI cells. As to the kind of experiment: Photoinduced cell kill of DAUDI cells ([3H]-thymidine incorporation). In kind it is cell-based. To be noted: for CPM ([3H]-thymidine incorporation): 10% FCS medium. As for the experimental part: An additional study using DAUDI cells and lower concentrations of Compound VII was performed according to the same protocol for studying the photochemical kill of H9 cells mediated by Compound VII. Viability was determined by the trypan blue assay above, as well as by [^3 H]-thymidine incorporation. The [^3 H]-thymidine incorporated protocol was as follows:
After irradiation, the cells were diluted to 3×10^5 cells/ml with medium containing twice the normal concentration of gentamycin. The cells were pipetted into a 96-well TC plat (100 μl/well) and incubated at 37° C. in a 5% CO2 incubator for 36 hours. At this time 1 μCi of [^3 ]-thymidine was added and allowed to incorporate for 6 hours. The cells were then harvested on glass fiber filters and placed into scintillation vials to which cocktail was added. The samples were counted on a Beckman model LS 6000IC scintillation counter.
(In general: Uptake of a labelled nucleoside into DNA is a usual measure of proliferation.)

The subject of assay [1] is Herpes simplex virus type 1. As to the kind of experiment: Effect of DiEd6Br and light on HSV-1 containing 15% fetal calf serum and human blood platelets (plaque assay). As to conditions: for log reduction at 0.156 µM / log reduction at 0.625 µM: Human alphaherpesvirus 1, Platelet, light or radiation study, read-out: Log10 Reduction. Format: cell-based, MacIntyre strain.

Assay [2] deals with F-actin polymers of G-actin. As to the kind of experiment: Protein crosslinking with DiEd6Br: F-actin. In kind it is biochemical. To be noted: 40.0 μM, 400 J/cm^2.
Where [3] appears, read: photochemically attenuated virus.
The mark [4] stands for this setting: virus and dye, dark control, 7.5 to 250 ng/ml.

Like-named read-outs stand apart in the source and are kept apart here.

In the case of `CCCCCCNc1c(Br)cc2c3c(cccc13)C(=O)N(CCCCCC)C2=O` [Compound VII, 3-bromo-4-(hexyl)amino-N-hexyl-1,8-naphthalimide], the viability at 1 µM with H9 cells (no previous light activation) worked out at 72.7%; in the assay on H9 cells (previous light activation), 68.4%. In addition, the values for the viability at 10 µM in the assay on H9 cells (no previous light activation) and with H9 cells (previous light activation) were 77.2% and 31.8%, respectively. In addition, the viability at 25 µM with H9 cells (no previous light activation) was found to be 57.9%; with H9 cells (previous light activation), 4.9%. Also, the viability at 50 µM amounted to 27.4% with H9 cells (no previous light activation) and 0% with H9 cells (previous light activation). Besides, the viability at 75 µM is 33.9% with H9 cells (no previous light activation) and 0% in the assay on H9 cells (previous light activation). Further, the internal viral antigen entry in the assay on BHV-1 antigen (setting [3]) is “internal antigen was observed at all concentrations of Compound VII which showed CPE”; with BHV-1 antigen (setting [4]), “Internal antigen was observed and correlated with CPE levels”. For the same molecule, the surface viral antigen entry was “Surface antigen was observed at all concentrations” with BHV-1 antigen (setting [3]) and “Much surface viral antigen was detected at all dye concentrations” in the assay with BHV-1 antigen (setting [4]). Besides, the “CPM ([3H]-thymidine incorporation)” value was 1.2 ± 0.4 × 10^2 CPM in the assay with DAUDI cells (1 μM, hν); 5.1 ± 0.3 × 10^4 CPM with DAUDI cells (1 μM, no hν); 1.1 ± 0.3 × 10^2 CPM with DAUDI cells (5 μM, hν); 4.8 ± 0.3 × 10^4 CPM in the assay with DAUDI cells (5 μM, no hν); 1.0 ± 0.4 × 10^2 CPM in the assay on DAUDI cells (10 μM, hν); 4.5 ± 0.2 × 10^4 CPM in the assay on DAUDI cells (10 μM, no hν). The photochemical cell inactivation entry in the assay on DAUDI cells (concentrations as low as 1 μM, 10J/cm^2) is “highly efficient photochemical cell inactivator”.

In the case of `CCCCCCN1C(=O)c2cccc3c(NCCNC(=O)CCCCC(=O)NCCNc4c(Br)cc5c6c(cccc46)C(=O)N(CCCCCC)C5=O)c(Br)cc(c23)C1=O` [Compound XLIV], the PFU/ml is recorded as 7.4 × 10^7 PFU/ml in assay [1] (0.156 μM, 5 J/cm^2); 6.0 × 10^7 PFU/ml in assay [1] (0.156 μM, 10 J/cm^2); 1.5 × 10^7 PFU/ml in assay [1] (0.156 μM, 20 J/cm^2); 4.5 × 10^6 PFU/ml in assay [1] (0.156 μM, 40 J/cm^2); 1.5 × 10^6 PFU/ml in assay [1] (0.156 μM, 60 J/cm^2); 5.0 × 10^5 PFU/ml in assay [1] (625 μM (so in the source), 5 J/cm^2). For the same molecule, the PFU/ml was 4.5 × 10^5 PFU/ml in assay [1] (625 μM (so in the source), 10 J/cm^2); 2.0 × 10^4 PFU/ml in assay [1] (625 μM (so in the source), 20 J/cm^2); 1.1 × 10^3 PFU/ml in assay [1] (625 μM (so in the source), 40 J/cm^2); “None detected” in assay [1] (625 μM (so in the source), 60 J/cm^2). Also, the log reduction at 0.156 µM was 0.01 in assay [1] (0.156 μM, 5 J/cm^2); 0.1 in assay [1] (0.156 μM, 10 J/cm^2); 0.7 in assay [1] (0.156 μM, 20 J/cm^2); 1.22 in assay [1] (0.156 μM, 40 J/cm^2); 1.7 in assay [1] (0.156 μM, 60 J/cm^2). Besides, the log reduction at 0.625 µM in assay [1] (5 J/cm^2) is 2.18; in assay [1] (10 J/cm^2), 2.22; in assay [1] (20 J/cm^2), 3.58; in assay [1] (40 J/cm^2) it was 4.84; in assay [1] (60 J/cm^2), 7. In addition, the “kill of HSV-1” value in assay [1] (as low as 0.625 mM, 60 J/cm^2, 15% serum proteins and platelets) is on record as above 99.86%. Also, the heavier bands entry in assay [2] is reported as “many ill separated heavier bands merging together near”. The “Inferred Crosslinked Species” value in assay [2] (first species) turned out to be 2 G-actin; in assay [2] (second species), 3 G-actin. The “Inferred Crosslinked Species, Gel mw” value in assay [2] (2 G-actin monomers) came to 94 kD; in assay [2] (3 G-actin monomers) it was 141 kD.
